Measured values as given in US20020141966A1, “Compositions for treatment of malignant effusions, and methods of making and using the same” (priority 2000, published 2002).

What was measured:
[1] = tested on: human colon carcinoma cell line HT29; assay: Survival study in HT29 colon cancer xenograft mouse model; type: in vivo, SCID mice; details: Paclitaxel 40 mg/kg, IP on day 4 post tumor cell implantation
Protocol: PACLIMER was provided as in powder and suspended in the vehicle (0.1% Tween80 in normal saline) just before administration. Paclitaxel was purchased from Bristol-Myers Squib Co., which was provided as a solution at a concentration of 6 mg/ml. The paclitaxel solution was diluted to 1 mg/ml with 0.9% sodium chloride just before use.
The human colon carcinoma cell line HT29 was used to set up the colon cancer xenograft mouse model. SCID mice were injected i.p. with 10 million cells. This generally results in death from the tumor metastasis and ascites around 30 days after tumor implantation. HT29 cells growing as a monolayer were harvested with trypsin and washed with PBS. The packed cells were resuspended in PBS (10 million cells per ml PBS). 48 SCID mice (C.B.17/Icr SCID, 8-10 weeks of age) were injected i.p. with 1 ml of the HT29 cell suspension (10 million cells for each mouse). 4 days after tumor implantation, the animals were grouped randomly. […]
For the ascites study, PACLIMER was to be given when obvious ascites was found in the mice. […] On 1, 5, and 10 days after treatment, 4 mice in each group was sacrificed at each time point and the ascites volumes were measured. […]

[2] = tested on: malignant effusions associated with non-small cell lung cancer; details: cited from earlier work
[3] = single 125 mg/m2 dose diluted in saline, intracavitary

## CC(=O)O[C@H]1C(=O)[C@@]2(C)[C@H]([C@H](OC(=O)c3ccccc3)[C@]3(O)C[C@H](OC(=O)[C@H](O)[C@@H](NC(=O)c4ccccc4)c4ccccc4)C(C)=C1C3(C)C)[C@]1(OC(C)=O)CO[C@@H]1C[C@@H]2O [Paclitaxel, paclitaxel]
[1]
  Median Survival: 44 days
[2]; [3]
  complete response rate: 28.6%
  total response rate: 92.9%
[2]; single 125 mg/m2 dose, following the treatment
  patients with total tumor mass reduced by more than 50%: one patient out of fourteen
